Laboratory results from patent US9133206B2, “Benzodiazepine and pyridodiazepine derivatives” (AbbVie Inc., priority 2010, dated 2015).
pEC50: −log10 of the molar value.

Test system: SK-N-SH human neuroblastoma cells
Experiment: Serum Deprivation/JC-1 Mitochondrial Membrane Potential (MMP) Assay
Assay type: cell-based
Details: for pEC50: serum deprivation ~18 hours, JC-1 ratio normalized to peak value for 10 μM dimebolin, single curve fit to mean data of n=2-3; for Emax / JC-1 max %: percent maximal intensity in JC-1 ratio normalized to peak value for 10 μM dimebolin, serum deprivation; for Emax: read-out: JC-1 max %
Description: The method also involves a high-throughput assay using serum-deprivation conditions involving neuronal cells to screen for compounds that increase or preserve mitochondrial membrane potential. Such compounds can be found to aid in rescuing cells from energy-depletion that occurs in several neurodegenerative states. Mitochondrial-mediated apoptosis occurs in response to a wide range of apoptotic stimuli including p^53, c-myc, DNA damage, prooxidants, chemotherapeutic agents, serum starvation and death receptor activation (Lin C—H., Lu Y-Z., Cheng, F-C., Chu L-F. and Hsuch C-M. Bax-regulated mitochondrial-mediated apoptosis is responsible for the in vitro ischemia induced neuronal cell death of Sprague Dawley rat. Neuroscience Lett. 2005, 387, 22-27).
Thus, this stress inducer, serum deprivation, combined with monitoring changes in the mitochondrial membrane potential in a 96-well format allows for the establishment of an efficient high-throughput screen (HTS) in order to evaluate the ability of compounds to increase mitochondrial membrane potential in the presence of stress and preserve health of the cell. Exemplary procedures for conducting such high-throughput assay are provided below.
SK-N-SH human neuroblastoma cells obtained from American Type Culture Collection (Rockville, Md.) were maintained in the log phase of growth in Minimal Essential Media (MEM), 10% heat inactivated fetal calf serum and 100 units/mL antibiotic-antimycotic (AA). Cells were cultured and maintained in a humidified incubator at 37° C. under 5% CO2 and 95% air. Cells were trypsinized (0.25%) and subcultured every 3 days and used from 15-18 passages. All cell culture supplies were obtained from Invitrogen (Carlsbad, Calif.).
SK-N-SH cells were plated 2-3 days in advance at a concentration of 50,000 cells/well onto collagen coated black-walled 96 well plates (Becton-Dickinson, Bedford, Mass.) in a total volume of […]. On day of experimental treatment, the media containing serum was aspirated from each well and rinsed once with MEM/1% AA without serum. The cells then were incubated overnight in 100 μL of MEM/1% AA (no serum) with and without dimebolin or novel chemical entities overnight for ˜18 hours. The following day, JC-1 dye (5,5′,6,6′-tetrachloro-1,1′,3,3′-tetraethylbenzimidazolcarbocyanide) was diluted 1:10 into MEM media according to the JC-1 Mitochondrial Membrane Potential Assay Kit: (Cayman Chemical Company, Ann Arbor, Mich.) and then 10 μL of the JC-1 dye solution was added to each well. The plates were centrifuged for 5 minutes at 400×g at room temperature followed by 40 minute incubation at 37° C. The plates were washed twice with 200 μL of provided Assay Buffer followed an addition of 100 μL of Assay Buffer to each well. The plates were read with an excitation and emission of 560 nm and 595 nM for red fluorescence and with an excitation and emission of 485 nm and 535 nM for green fluorescence to determine the final JC-1 value taking the red to green fluorescence ratio. This assay is based on change in mitochondrial membrane potential (MMP) using this lipophilic cationic dye, JC-1, by monitoring the changes in the ratio of red to green fluorescence as the MMP depolarizes. This change in MMP reflects the health of the cell with healthy, viable cells have a high JC-1 ratio and high MMP whereas apoptotic, unhealthy cells have a low JC-1 ratio or low MMP.
For the ability of compounds to reverse the stress due to serum deprivation and increase the JC-1 ratio, the percent maximal intensity in JC-1 ratio was normalized to that induced by the peak value for 10 μM dimebolin and plotted against the compound concentration to calculate EC50 values and to control for plate-to-plate variability. Concentration-response data were analyzed using GraphPad Prism (San Diego, Calif.); the EC50 values were derived from a single curve fit to the mean data of n=2-3, in duplicates. […]

Row | Structure (SMILES) | pEC50 (Homo sapiens, SK-N-SH, 18 h) | Emax (Homo sapiens, SK-N-SH) [%] | JC-1 max % [%] | pEC50
1 | O=C([C@@H]1C[C@H]1c1ccccc1)N1Cc2ccccc2N2CCN(Cc3ccccc3)CC2C1 (relative stereo) [Example 15, (3-benzyl-1,2,3,4,4a,5-hexahydropyrazino[1,2-a][1,4]benzodiazepin-6(7H)-yl)[trans-2-phenylcyclopropyl]methanone] | 5.66 | 225 | – | –
2 | Fc1ccc(CN2CCN3c4ccccc4CN(Cc4ccc(Br)cc4)C[C@H]3C2)cc1 (single isomer, unassigned) [Example 61] | 5.59 | 213 | – | –
3 | Fc1ccc(CN2CCN3c4ccccc4CN(Cc4ccc(Br)cc4)C[C@@H]3C2)cc1 (single isomer, unassigned) [Example 62] | 5.44 | 161 | – | –
4 | Brc1ccc(CN2Cc3ccccc3N3CCN(Cc4ccccc4)CC3C2)cc1 (single isomer, unassigned; (+)) [Example 19, (+)-3-benzyl-6-(4-bromobenzyl)-1,2,3,4,4a,5,6,7-octahydropyrazino[1,2-a][1,4]benzodiazepine] | – | – | 169 | 5.81
5 | Brc1ccc(CN2Cc3ccccc3N3CCN(Cc4ccccc4)CC3C2)cc1 (single isomer, unassigned; (-)) [Example 18, (−)-3-benzyl-6-(4-bromobenzyl)-1,2,3,4,4a,5,6,7-octahydropyrazino[1,2-a][1,4]benzodiazepine] | – | – | 178 | 5.57
6 | CC(C)(C)OC(=O)N1CCN2c3ccccc3CNC(=O)C2C1 (stereo not drawn) [Example 1, tert-butyl 5-oxo-1,2,4a,5,6,7-hexahydropyrazino[1,2-a][1,4]benzodiazepine-3(4H)-carboxylate] | 5.02 | 88 | – | –
7 | c1ccc(CN2CCN3c4ccccc4CNCC3C2)cc1 (stereo not drawn) [Example 2, 3-benzyl-1,2,3,4,4a,5,6,7-octahydropyrazino[1,2-a][1,4]benzodiazepine] | 5.46 | 186 | – | –
8 | Brc1ccc(CN2Cc3ccccc3N3CCN(Cc4ccccc4)CC3C2)cc1 (stereo not drawn) [Example 3, 3-benzyl-6-(4-bromobenzyl)-1,2,3,4,4a,5,6,7-octahydropyrazino[1,2-a][1,4]benzodiazepine] | – | – | 226 | 5.54
9 | O=C(Cc1ccccc1)N1Cc2ccccc2N2CCN(Cc3ccccc3)CC2C1 (stereo not drawn) [Example 4, 1-(3-benzyl-1,2,3,4,4a,5-hexahydropyrazino[1,2-a][1,4]benzodiazepin-6(7H)-yl)-2-phenylethanone] | 5.62 | 263 | – | –
10 | O=C(c1ccccc1)N1Cc2ccccc2N2CCN(Cc3ccccc3)CC2C1 (stereo not drawn) [Example 5, (3-benzyl-1,2,3,4,4a,5-hexahydropyrazino[1,2-a][1,4]benzodiazepin-6(7H)-yl)(phenyl)methanone] | 5.17 | 57 | – | –
11 | c1ccc(CN2CCN3c4ccccc4C[N+](Cc4ccccc4)(Cc4ccccc4)CC3C2)cc1 (stereo not drawn) [Example 6, 3,6,6-tribenzyl-1,2,3,4,4a,5,6,7-octahydropyrazino[1,2-a][1,4]benzodiazepin-6-ium] | – | – | 148 | 5.19
12 | c1ccc(CN2CCN3c4ccccc4CN(Cc4ccccc4)CC3C2)cc1 (stereo not drawn) [Example 7, 3,6-dibenzyl-1,2,3,4,4a,5,6,7-octahydropyrazino[1,2-a][1,4]benzodiazepine] | < 4.52 | 24 | – | –
13 | CN1Cc2ccccc2N2CCN(Cc3ccccc3)CC2C1 (stereo not drawn) [Example 8, 3-benzyl-6-methyl-1,2,3,4,4a,5,6,7-octahydropyrazino[1,2-a][1,4]benzodiazepine] | 5.52 | 204 | – | –
14 | c1ccc(CN2CCN3c4ccccc4CN(c4ncccn4)CC3C2)cc1 (stereo not drawn) [Example 9, 3-benzyl-6-(pyrimidin-2-yl)-1,2,3,4,4a,5,6,7-octahydropyrazino[1,2-a][1,4]benzodiazepine] | 5.59 | 158 | – | –
15 | O=C(c1ccc(F)cc1)N1Cc2ccccc2N2CCN(Cc3ccccc3)CC2C1 (stereo not drawn) [Example 10, (3-benzyl-1,2,3,4,4a,5-hexahydropyrazino[1,2-a][1,4]benzodiazepin-6(7H)-yl)(4-fluorophenyl)methanone] | 5.56 | 248 | – | –
16 | c1ccc(CN2CCN3c4ccccc4CN(c4cnccn4)CC3C2)cc1 (stereo not drawn) [Example 11, 3-benzyl-6-(pyrazin-2-yl)-1,2,3,4,4a,5,6,7-octahydropyrazino[1,2-a][1,4]benzodiazepine] | 5.25 | 122 | – | –
17 | O=C(c1cnccn1)N1Cc2ccccc2N2CCN(Cc3ccccc3)CC2C1 (stereo not drawn) [Example 12, (3-benzyl-1,2,3,4,4a,5-hexahydropyrazino[1,2-a][1,4]benzodiazepin-6(7H)-yl)(pyrazin-2-yl)methanone] | 5.95 | 198 | – | –
18 | O=C(N1Cc2ccccc2N2CCN(Cc3ccccc3)CC2C1)C1(c2ccccc2)CC1 (stereo not drawn) [Example 13, (3-benzyl-1,2,3,4,4a,5-hexahydropyrazino[1,2-a][1,4]benzodiazepin-6(7H)-yl)(1-phenylcyclopropyl)methanone] | 5.38 | 175 | – | –
19 | O=C(N1CCOCC1)N1Cc2ccccc2N2CCN(Cc3ccccc3)CC2C1 (stereo not drawn) [Example 14, (3-benzyl-1,2,3,4,4a,5-hexahydropyrazino[1,2-a][1,4]benzodiazepin-6(7H)-yl)(morpholin-4-yl)methanone] | 6.12 | 203 | – | –
20 | c1ccc(CN2CCN3c4ccccc4CN(c4ccccn4)CC3C2)cc1 (stereo not drawn) [Example 16, 3-benzyl-6-(pyridin-2-yl)-1,2,3,4,4a,5,6,7-octahydropyrazino[1,2-a][1,4]benzodiazepine] | 5.44 | 131 | – | –
21 | Fc1ccc(CN2Cc3ccccc3N3CCN(Cc4ccccc4)CC3C2)cc1 (stereo not drawn) [Example 17, 3-benzyl-6-(4-fluorobenzyl)-1,2,3,4,4a,5,6,7-octahydropyrazino[1,2-a][1,4]benzodiazepine] | 5.35 | 183 | – | –
22 | O=C(/C=C/c1ccccc1)N1Cc2ccccc2N2CCN(Cc3ccccc3)CC2C1 (stereo not drawn) [Example 20, (2E)-1-(3-benzyl-1,2,3,4,4a,5-hexahydropyrazino[1,2-a][1,4]benzodiazepin-6(7H)-yl)-3-phenylprop-2-en-1-one] | 5.26 | 133 | – | –
23 | FC(F)(F)c1ccc(CN2Cc3ccccc3N3CCN(Cc4ccccc4)CC3C2)cc1 (stereo not drawn) [Example 21, 3-benzyl-6-[4-(trifluoromethyl)benzyl]-1,2,3,4,4a,5,6,7-octahydropyrazino[1,2-a][1,4]benzodiazepine] | 5.21 | 168 | – | –
24 | CN1CCN2c3ccccc3N(Cc3ccc(Br)cc3)CCC2C1 (stereo not drawn) [Example 22, 7-(4-bromobenzyl)-3-methyl-1,2,3,4,4a,5,6,7-octahydropyrazino[1,2-a][1,5]benzodiazepine] | 5.53 | 173 | – | –
25 | Fc1cc(CN2Cc3ccccc3N3CCN(Cc4ccccc4)CC3C2)ccc1Br (stereo not drawn) [Example 23, 3-benzyl-6-(4-bromo-3-fluorobenzyl)-1,2,3,4,4a,5,6,7-octahydropyrazino[1,2-a][1,4]benzodiazepine] | 5.24 | 238 | – | –
26 | Fc1cc(F)cc(CN2Cc3ccccc3N3CCN(Cc4ccccc4)CC3C2)c1 (stereo not drawn) [Example 24, 3-benzyl-6-(3,5-difluorobenzyl)-1,2,3,4,4a,5,6,7-octahydropyrazino[1,2-a][1,4]benzodiazepine] | 5.32 | 166 | – | –
27 | Fc1ccc(CN2Cc3ccccc3N3CCN(Cc4ccccc4)CC3C2)cc1F (stereo not drawn) [Example 25, 3-benzyl-6-(3,4-difluorobenzyl)-1,2,3,4,4a,5,6,7-octahydropyrazino[1,2-a][1,4]benzodiazepine] | 4.80 | 128 | – | –
